Reference: patent publication US12492188B2, “1H-benzo[D]imidazole derivatives as TLR9 inhibitors for the treatment of fibrosis” (BRISTOL-MYERS SQUIBB COMPANY, priority 2020, dated 2025)
Like-named read-outs stand apart in the source and are kept apart here.

Key:
Type in all cases: cell-based
human TLR9 = target: T1, human TLR9 (Homo sapiens, UniProt Q9NR96); experiment: TLR9 inhibition reporter assay (HEK-Blue cells, secreted embryonic alkaline phosphatase reporter)
T1 construct: host or cells: HEK-Blue cells (HEK293-derived reporter line)
T1 sequence (Q9NR96 26-1032): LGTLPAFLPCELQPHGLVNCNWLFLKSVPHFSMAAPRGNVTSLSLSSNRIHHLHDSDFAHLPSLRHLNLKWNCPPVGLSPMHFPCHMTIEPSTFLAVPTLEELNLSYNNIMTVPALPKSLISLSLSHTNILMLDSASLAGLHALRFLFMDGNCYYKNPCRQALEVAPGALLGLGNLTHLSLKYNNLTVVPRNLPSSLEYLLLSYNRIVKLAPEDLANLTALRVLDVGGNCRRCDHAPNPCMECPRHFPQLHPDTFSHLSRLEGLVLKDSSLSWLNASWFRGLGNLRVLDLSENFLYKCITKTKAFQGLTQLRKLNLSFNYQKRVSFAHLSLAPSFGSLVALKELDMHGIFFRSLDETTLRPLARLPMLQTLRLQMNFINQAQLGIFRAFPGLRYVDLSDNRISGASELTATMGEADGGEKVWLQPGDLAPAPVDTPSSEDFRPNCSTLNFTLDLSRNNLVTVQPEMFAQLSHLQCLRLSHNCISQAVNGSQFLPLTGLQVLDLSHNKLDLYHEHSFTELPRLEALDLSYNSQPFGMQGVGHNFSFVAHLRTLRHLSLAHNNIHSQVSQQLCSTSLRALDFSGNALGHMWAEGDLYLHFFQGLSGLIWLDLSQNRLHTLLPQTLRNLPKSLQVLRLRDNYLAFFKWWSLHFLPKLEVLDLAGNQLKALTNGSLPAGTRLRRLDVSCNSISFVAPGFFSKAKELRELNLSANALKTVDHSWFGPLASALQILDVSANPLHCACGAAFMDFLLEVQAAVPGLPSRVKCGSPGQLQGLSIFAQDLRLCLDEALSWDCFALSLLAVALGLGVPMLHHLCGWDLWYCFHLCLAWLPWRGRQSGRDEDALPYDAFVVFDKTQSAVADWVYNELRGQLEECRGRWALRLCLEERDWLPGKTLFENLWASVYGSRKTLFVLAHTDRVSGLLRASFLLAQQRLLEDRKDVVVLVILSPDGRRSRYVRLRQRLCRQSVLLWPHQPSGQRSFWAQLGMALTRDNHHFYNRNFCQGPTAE
How it was run: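 Cells seeded at 15000 (TLR7), 20,000 (TLR8) or 25,000 (TLR9) per well; compound 0.05 nM–50 μM, 30 min RT pre-incubation. Agonists: gardiquimod 7.5 μM, R848 15.9 μM, ODN2006 5 nM respectively. 22 h, 37 °C; SEAP via HEK-Blue Detection; % inhibition vs agonist+DMSO and known-inhibitor wells.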

human TLR7 = target: T2, human TLR7 (Homo sapiens, UniProt Q9NYK1); experiment: TLR7 inhibition reporter assay (HEK-Blue cells, secreted embryonic alkaline phosphatase reporter); details: HEK-Blue cells overexpressing human TLR7, stimulated with gardiquimod 7.5 μM; read-out: TLR 7 IC50
T2 construct: host or cells: HEK-Blue cells (HEK293-derived reporter line)
T2 sequence (Q9NYK1 27-1049): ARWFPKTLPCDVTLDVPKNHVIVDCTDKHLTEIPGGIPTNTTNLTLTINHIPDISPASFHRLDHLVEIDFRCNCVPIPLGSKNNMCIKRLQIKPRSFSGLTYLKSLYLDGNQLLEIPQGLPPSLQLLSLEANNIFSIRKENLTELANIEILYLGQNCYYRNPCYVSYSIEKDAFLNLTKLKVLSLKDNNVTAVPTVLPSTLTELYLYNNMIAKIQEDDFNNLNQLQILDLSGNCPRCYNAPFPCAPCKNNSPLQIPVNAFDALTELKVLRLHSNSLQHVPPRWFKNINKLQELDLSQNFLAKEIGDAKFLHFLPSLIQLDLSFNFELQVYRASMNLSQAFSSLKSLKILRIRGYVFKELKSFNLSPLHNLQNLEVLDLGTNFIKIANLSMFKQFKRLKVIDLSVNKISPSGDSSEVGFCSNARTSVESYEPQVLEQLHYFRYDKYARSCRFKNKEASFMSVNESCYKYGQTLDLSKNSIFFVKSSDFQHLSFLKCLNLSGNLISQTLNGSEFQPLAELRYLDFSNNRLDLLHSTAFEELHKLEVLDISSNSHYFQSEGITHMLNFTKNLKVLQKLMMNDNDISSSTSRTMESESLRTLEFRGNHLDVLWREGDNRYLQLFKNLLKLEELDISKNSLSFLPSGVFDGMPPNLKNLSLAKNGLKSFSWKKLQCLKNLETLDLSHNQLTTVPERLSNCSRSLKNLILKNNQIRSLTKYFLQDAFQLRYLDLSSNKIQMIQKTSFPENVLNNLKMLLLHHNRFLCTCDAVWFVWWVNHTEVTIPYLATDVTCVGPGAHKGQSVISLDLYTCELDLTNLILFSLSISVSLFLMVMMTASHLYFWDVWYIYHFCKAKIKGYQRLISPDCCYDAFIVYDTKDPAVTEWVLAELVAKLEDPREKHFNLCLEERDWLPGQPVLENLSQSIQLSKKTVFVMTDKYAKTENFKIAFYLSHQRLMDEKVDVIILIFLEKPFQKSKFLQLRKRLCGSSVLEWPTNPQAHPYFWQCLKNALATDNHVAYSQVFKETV
Protocol: (§1) TLR7/8/9 Inhibition Reporter Assays
(§2) HEK-Blue™-cells (Invivogen) overexpressing human TLR7, TLR8 or TLR9 receptors were used for screening inhibitors of these receptors using an inducible SLAP (secreted embryonic alkaline phosphatase) reporter gene under the control of the […] minimal promoter fused to five NF-κB and AP-1-binding sites. Briefly, cells are seeded into Greiner 384 well plates (15000 cells per well for TLR7, 20,000 for TLR8 and 25,000 for TLR9) and then treated with test compounds in DMSO to yield a final dose response concentration range of 0.05 nM-50 μM. After a 30 minute compound pre-treatment at room temperature, the cells are then stimulated with a TLR7 ligand (gardiquimod at a final concentration of 7.5 μM), TLR8 ligand (R848 at a final concentration of 15.9 μM) or TLR9 ligand (ODN2006 at a final concentration of 5 nM) to activate NF-κB and AP-1 which induce the production of SLAP. After a 22 hour incubation at 37° C., […], SLAP levels are determined with the addition of HEK-Blue™ Detection reagent (Invivogen), a cell culture medium that allows for detection of SLAP, according to manufacturer's specifications. The percent inhibition is determined as the […] in the HEK-Blue signal present in wells treated with agonist plus DMSO alone compared to wells treated with a known inhibitor.

human TLR8 = target: T3, human TLR8 (Homo sapiens, UniProt Q9NR97); experiment: TLR8 inhibition reporter assay (HEK-Blue cells, secreted embryonic alkaline phosphatase reporter); details: HEK-Blue cells overexpressing human TLR8, stimulated with R848 15.9 μM; read-out: TLR 8 IC50
T3 construct: host or cells: HEK-Blue cells (HEK293-derived reporter line)
T3 sequence (Q9NR97 27-1041): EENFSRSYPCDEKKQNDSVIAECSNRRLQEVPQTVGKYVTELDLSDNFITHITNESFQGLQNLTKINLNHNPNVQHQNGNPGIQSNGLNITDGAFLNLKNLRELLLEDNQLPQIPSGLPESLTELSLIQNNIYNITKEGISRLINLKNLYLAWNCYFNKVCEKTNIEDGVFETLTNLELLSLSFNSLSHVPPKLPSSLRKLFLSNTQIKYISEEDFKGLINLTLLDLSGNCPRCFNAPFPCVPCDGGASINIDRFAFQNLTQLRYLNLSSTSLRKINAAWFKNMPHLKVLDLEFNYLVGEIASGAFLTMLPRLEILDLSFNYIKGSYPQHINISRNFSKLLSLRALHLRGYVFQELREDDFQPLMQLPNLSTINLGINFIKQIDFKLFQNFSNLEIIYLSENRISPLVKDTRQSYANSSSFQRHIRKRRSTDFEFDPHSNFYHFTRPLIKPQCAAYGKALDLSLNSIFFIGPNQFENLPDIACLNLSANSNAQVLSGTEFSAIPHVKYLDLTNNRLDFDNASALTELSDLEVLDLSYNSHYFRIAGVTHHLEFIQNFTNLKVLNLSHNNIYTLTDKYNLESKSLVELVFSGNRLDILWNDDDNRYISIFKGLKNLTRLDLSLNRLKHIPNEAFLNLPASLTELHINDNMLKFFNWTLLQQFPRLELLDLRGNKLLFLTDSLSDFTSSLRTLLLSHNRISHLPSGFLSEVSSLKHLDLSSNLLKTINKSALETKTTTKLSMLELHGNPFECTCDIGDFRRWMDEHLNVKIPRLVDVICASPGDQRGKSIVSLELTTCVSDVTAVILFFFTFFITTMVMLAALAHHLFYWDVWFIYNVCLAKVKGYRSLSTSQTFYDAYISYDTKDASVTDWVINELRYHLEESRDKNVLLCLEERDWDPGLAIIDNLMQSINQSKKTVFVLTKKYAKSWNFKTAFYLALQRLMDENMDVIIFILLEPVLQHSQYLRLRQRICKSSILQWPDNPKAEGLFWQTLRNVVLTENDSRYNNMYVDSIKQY
Protocol: as §1, §2

[1] = HEK-Blue cells overexpressing human TLR9, stimulated with ODN2006 5 nM, read-out: TLR 9 IC50
[2] = HEK-Blue human TLR9 reporter cells
[3] = HEK-Blue cells overexpressing human TLR9, stimulated with ODN2006 5 nM, 22 hour incubation, reporter readout

Structure (SMILES)	IC50 (human TLR9)	IC50 (human TLR9; [1])	IC50 (human TLR7)	IC50 (human TLR8)	IC50 (human TLR9; [2])	IC50 (human TLR9; [3])
COCCN1C2CCC1CC(N1CCC(c3ccc4c(nc(-c5ccc(S(C)(=O)=O)cc5)n4C)c3F)CC1)C2 (single isomer, unassigned) [Example 200, 4-fluoro-5-(1-(8-(2-methoxyethyl)-8-azabicyclo[3.2.1]octan-3-yl)piperidin-4-yl)-1-methyl-2-(4-(methylsulfonyl)phenyl)-1H-benzo[d]imidazole]	380 nM	380 nM	47.8 µM	> 50 µM	–	–
COc1cc(-c2nc3c(C)cc(C4CCN(C5CC6CCC(C5)N6CC5CC5)CC4)cc3n2C)cn2ncnc12 (stereo not shown) [Example 358, 6-(6-(1-(8-(cyclopropylmethyl)-8-azabicyclo[3.2.1]octan-3-yl)piperidin-4-yl)-1,4-dimethyl-1H-benzo[d]imidazol-2-yl)-8-methoxy-[1,2,4]triazolo[1,5-a]pyridine]	–	8.1 nM	0.1 µM	2.8 µM	8.1 nM	–
Cc1cc(C2CCN(C3CCCN(C4CCC4)CC3)CC2)cc2c1nc(-c1ccc(S(C)(=O)=O)cc1)n2C (single isomer, unassigned) [Example 110, 6-(1-(1-cyclobutylazepan-4-yl)piperidin-4-yl)-1,4-dimethyl-2-(4-(methylsulfonyl)phenyl)-1H-benzo[d]imidazole]	–	–	1.2 µM	> 50 µM	–	83 nM
Cn1c(-c2ccc(S(C)(=O)=O)cc2)nc2c(F)c(C3CCN(C4CC5CCC(C4)N5C4CCOCC4)CC3)ccc21 (stereo not shown) [Example 197, 4-fluoro-1-methyl-2-(4-(methylsulfonyl)phenyl)-5-(1-(8-(tetrahydro-2H-pyran-4-yl)-8-azabicyclo[3.2.1]octan-3-yl)piperidin-4-yl)-1H-benzo[d]imidazole]	160 nM	155 nM	> 50 µM	> 50 µM	–	–
Cn1c(-c2ccc(S(C)(=O)=O)cc2)nc2ccc(C3CCN(C4CCCN(C5CCC5)CC4)CC3)c(F)c21 (stereo not shown) [Example 312, 6-(1-(1-cyclobutylazepan-4-yl)piperidin-4-yl)-7-fluoro-1-methyl-2-(4-(methylsulfonyl)phenyl)-1H-benzo[d]imidazole]	–	64 nM	> 50 µM	> 50 µM	64 nM	–
CS(=O)(=O)c1ccc(-c2nc3ccc(C4CCN(C5CCN(CC6COC6)CC5)CC4)c(F)c3[nH]2)cc1 [Example 183, 7-fluoro-2-(4-(methylsulfonyl)phenyl)-6-(1′-(oxetan-3-ylmethyl)-[1,4′-bipiperidin]-4-yl)-1H-benzo[d]imidazole]	110 nM	110 nM	> 50 µM	> 50 µM	–	–
CC(C)N1C2CCC1CC(N1CCC(c3ccc4c(nc(-c5ccc(S(C)(=O)=O)cc5)n4C)c3F)CC1)C2 (single isomer, unassigned) [Example 90, 4-fluoro-5-(1-(8-isopropyl-8-azabicyclo[3.2.1]octan-3-yl)piperidin-4-yl)-1-methyl-2-(4-(methylsulfonyl)phenyl)-1H-benzo[d]imidazole]	–	231 nM	> 50 µM	> 50 µM	–	230 nM
COc1cc(-c2nc3c(C)cc(C4CCN(C5CC6CCC(C5)N6CC(C)C)CC4)cc3[nH]2)cn2ncnc12 (stereo not shown) [Example 359, 6-(6-(1-(8-isobutyl-8-azabicyclo[3.2.1]octan-3-yl)piperidin-4-yl)-4-methyl-1H-benzo[d]imidazol-2-yl)-8-methoxy-[1,2,4]triazolo[1,5-a]pyridine]	–	76 nM	2.9 µM	14.9 µM	76 nM	–
CC(C)N1CCC(N2CCC(c3cc4c(cc3F)nc(-c3ccc(S(C)(=O)=O)cc3)n4C)CC2)CC1 [Example 96, 5-fluoro-6-(1′-isopropyl-[1,4′-bipiperidin]-4-yl)-1-methyl-2-(4-(methylsulfonyl)phenyl)-1H-benzo[d]imidazole]	–	–	7.3 µM	> 50 µM	–	73 nM
